# “And” between values parts separate entries of the source, which are not always exact repeats. Equal values may be shown once. Read-outs that look alike come from different tables or passages of the source.
# What was measured:
# inoculum (ileal) = assay: In vitro swine procedure, ileal inoculum incubation (VFA, lysine, glucose, L-lactic acid); design: species or system swine (Yorkshire barrow)
# [1] = W. Barker et al., J. Antibiotics 32 1096 (1979); cited from earlier work
# inoculum (cecal) = assay: In vitro swine procedure, cecal inoculum incubation (VFA, lysine, glucose, L-lactic acid); design: species or system swine (Yorkshire barrow)
# post weanling pigs [2] = assay: Post weanling pig feeding test, corn based pre-starter feed (Example 6); type: in vivo; settings: 10 ppm; corn ration
# Excerpt: Each replication contained 8 treatment groups in turn comprising 2 pigs per pen.
# post weanling pigs [3] = assay: Pig feeding test, corn and rye diets (Example 7); type: in vivo; settings: 10 ppm
# Method: Each replication contained 8 treatment groups in turn comprising 2 pigs per pen. The experiment was run similar to that of Example 6 except another control having a rye diet was added.
# [4] = ileal, 167 ppm, positive control of run 1(a), DMSO series (carrier not given)
molecule,measurement,setting,value
"O=[N+]([O-])c1ccc([O-])[n+]([O-])c1.O=[N+]([O-])c1ccc([O-])[n+]([O-])c1.[Cu+2] [5-Nitro-2-hydroxypyridine-N--oxide, Cu^++]",LYS (lysine),inoculum (ileal),109
same,GLU (glucose),"inoculum (ileal); ileal, 167 ppm",110 % of blank control values and 104 % of blank control values
same,LAC (L-lactic acid),"inoculum (ileal); ileal, 167 ppm",160 % of blank control values and 106 % of blank control values
same,LYS (lysine),"inoculum (ileal); ileal, 167 ppm",159 % of blank control values
same,VFA (total of volatile fatty acids),"inoculum (ileal); ileal, 167 ppm",47 % of blank control values and 48 % of blank control values
O=S(=O)([O-])[O-].[Cu+2] [Copper sulfate],GLU (glucose),"inoculum (ileal); ileal, 3.3 ppm",109 % of blank control values
same,LAC (L-lactic acid),"inoculum (ileal); ileal, 3.3 ppm",113 % of blank control values
same,LYS (lysine),"inoculum (ileal); ileal, 3.3 ppm",107 % of blank control values
same,VFA (total of volatile fatty acids),"inoculum (ileal); ileal, 3.3 ppm",99 % of blank control values
same,GLU (glucose),"inoculum (ileal); ileal, 33.3 ppm",98 % of blank control values
same,LAC (L-lactic acid),"inoculum (ileal); ileal, 33.3 ppm",104 % of blank control values
same,VFA (total of volatile fatty acids),"inoculum (ileal); ileal, 33.3 ppm",99 % of blank control values
same,GLU (glucose),"inoculum (ileal); ileal, 333.33 ppm",113 % of blank control values
same,LAC (L-lactic acid),"inoculum (ileal); ileal, 333.33 ppm",137 % of blank control values
same,LYS (lysine),"inoculum (ileal); ileal, 333.33 ppm",107 % of blank control values
same,VFA (total of volatile fatty acids),"inoculum (ileal); ileal, 333.33 ppm",47 % of blank control values
COc1ccc(=O)n([O-])c1C.COc1ccc(=O)n([O-])c1C.[Cu+2] [copper salt of 2-hydroxy-5-methoxy-6-methylpyridine-N-oxide],antimicrobial activity relative to iron salt and ligand parent,[1],less antimicrobial activity than does either the corresponding iron salt or the ligand parent
virginiamycin,VFA (total of volatile fatty acids),inoculum (cecal),94
same,GLU (glucose),"inoculum (cecal); cecal, 0.17 ppm",30 % of blank control values
same,LYS (lysine),"inoculum (cecal); cecal, 0.17 ppm",71 % of blank control values
same,GLU (glucose),"inoculum (cecal); cecal, 1.67 ppm",72 % of blank control values
same,LYS (lysine),"inoculum (cecal); cecal, 1.67 ppm",74 % of blank control values
same,VFA (total of volatile fatty acids),"inoculum (cecal); cecal, 1.67 ppm",100 % of blank control values
same,GLU (glucose),"inoculum (cecal); cecal, 16.67 ppm",524 % of blank control values
same,LAC (L-lactic acid),"inoculum (cecal); cecal, 16.67 ppm",35 % of blank control values
same,LYS (lysine),"inoculum (cecal); cecal, 16.67 ppm",107 % of blank control values
same,VFA (total of volatile fatty acids),"inoculum (cecal); cecal, 16.67 ppm",83 % of blank control values
same,GLU (glucose),"inoculum (cecal); cecal, 167 ppm",732 % of blank control values
same,LAC (L-lactic acid),"inoculum (cecal); cecal, 167 ppm",49 % of blank control values
same,LYS (lysine),"inoculum (cecal); cecal, 167 ppm",172 % of blank control values
same,VFA (total of volatile fatty acids),"inoculum (cecal); cecal, 167 ppm",89 % of blank control values
same,GLU (glucose),"inoculum (ileal); ileal, 167 ppm",133 % of blank control values
same,LAC (L-lactic acid),"inoculum (ileal); ileal, 167 ppm",29 % of blank control values
same,LYS (lysine),"inoculum (ileal); ileal, 167 ppm",134 % of blank control values
same,GLU (glucose),inoculum (ileal); [4],101 % of blank control values
same,LAC (L-lactic acid),inoculum (ileal); [4],16 % of blank control values
same,LYS (lysine),inoculum (ileal); [4],167 % of blank control values
same,VFA (total of volatile fatty acids),inoculum (ileal); [4],14 % of blank control values
same,Average daily gain (0-21 days),post weanling pigs [2],.667
same,Feed/gain,post weanling pigs [2],2.56
same,"Feed/gain, percent in parentheses (control 100%)",post weanling pigs [2],97.4%
same,"Average Daily Gain, 0-23 days",post weanling pigs [3]; Vm + Cont. (corn diet),0.582 kg
same,"Average Daily Gain, 0-23 days",post weanling pigs [3]; Vm + Rye (rye diet),0.529 kg

# From patent publication US4454137A, “Feed compositions containing copper salts of 2-hydroxypyridine-N-oxides” (SmithKline Beckman Corporation, priority 1982, dated 1984)
